Experimental data: the supplement of paper PMC8612539
In brackets after ≈: the same amount, converted by molar mass.

Test system: Pasteurella multocida
Assay: minimum inhibitory concentration (MIC)
Procedure: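 Broth microdilution MIC (Sensititre BOPO7F bovine plate, CLSI methods) of 19 antimicrobials against field isolates of P. multocida, M. haemolytica, H. somni (deep nasopharyngeal swabs) and E. coli, Enterococcus spp. (rectal swabs) from weaned dairy heifers. Incubation 16-24 h at 35 C. MIC is the lowest concentration preventing visible growth. Values with <= or > lie at the tested range limits. Trimethoprim-sulfamethoxazole is given as the trimethoprim component of a 1:19 mixture.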

CC1(C)S[C@@H]2[C@H](NC(=O)[C@H](N)c3ccccc3)C(=O)N2[C@H]1C(=O)O [Ampicillin]
Settings | minimum inhibitory concentration [µg/mL]
isolate (source animal id): 10 | ≤ 0.25
isolate (source animal id): 11 | ≤ 0.25
isolate (source animal id): 12 | ≤ 0.25
isolate (source animal id): 19 | ≤ 0.25
isolate (source animal id): 23 | ≤ 0.25
isolate (source animal id): 26 | ≤ 0.25
isolate (source animal id): 98 | ≤ 0.25
isolate (source animal id): 104 | ≤ 0.25
isolate (source animal id): 115 | ≤ 0.25
isolate (source animal id): 117 | ≤ 0.25
isolate (source animal id): 118 | ≤ 0.25
isolate (source animal id): 121 | ≤ 0.25
isolate (source animal id): 124 | 0.5 (≈ 1.43 µM)
isolate (source animal id): 125 | ≤ 0.25
isolate (source animal id): 128 | ≤ 0.25
isolate (source animal id): 131 | ≤ 0.25
isolate (source animal id): 135 | ≤ 0.25
isolate (source animal id): 136 | ≤ 0.25
isolate (source animal id): 140 | ≤ 0.25
isolate (source animal id): 144 | ≤ 0.25
isolate (source animal id): 146 | ≤ 0.25
isolate (source animal id): 150 | ≤ 0.25
isolate (source animal id): 151 | ≤ 0.25
isolate (source animal id): 153 | ≤ 0.25
isolate (source animal id): 155 | ≤ 0.25
isolate (source animal id): 157 | ≤ 0.25
isolate (source animal id): 160 | ≤ 0.25
isolate (source animal id): 164 | ≤ 0.25
isolate (source animal id): 165 | ≤ 0.25
isolate (source animal id): 167 | ≤ 0.25
isolate (source animal id): 168 | ≤ 0.25
isolate (source animal id): 169 | ≤ 0.25
isolate (source animal id): 170 | 8 (≈ 22.9 µM)
isolate (source animal id): 171 | ≤ 0.25
isolate (source animal id): 172 | ≤ 0.25
isolate (source animal id): 173 | ≤ 0.25
isolate (source animal id): 174 | ≤ 0.25
isolate (source animal id): 175 | ≤ 0.25
isolate (source animal id): 176 | ≤ 0.25
isolate (source animal id): 177 | ≤ 0.25
isolate (source animal id): 178 | ≤ 0.25
isolate (source animal id): 179 | ≤ 0.25
isolate (source animal id): 182 | ≤ 0.25
isolate (source animal id): 192 | ≤ 0.25
isolate (source animal id): 193 | ≤ 0.25
isolate (source animal id): 195 | ≤ 0.25
isolate (source animal id): 196 | ≤ 0.25
isolate (source animal id): 197 | ≤ 0.25
isolate (source animal id): 198 | ≤ 0.25
isolate (source animal id): 199 | ≤ 0.25
isolate (source animal id): 200 | ≤ 0.25
isolate (source animal id): 201 | ≤ 0.25
isolate (source animal id): 203 | ≤ 0.25
isolate (source animal id): 204 | ≤ 0.25
isolate (source animal id): 205 | ≤ 0.25
isolate (source animal id): 206 | ≤ 0.25
isolate (source animal id): 207 | ≤ 0.25
isolate (source animal id): 208 | ≤ 0.25
isolate (source animal id): 209 | ≤ 0.25
isolate (source animal id): 210 | ≤ 0.25
isolate (source animal id): 213 | ≤ 0.25
isolate (source animal id): 216 | ≤ 0.25
isolate (source animal id): 223 | ≤ 0.25
isolate (source animal id): 227 | ≤ 0.25
isolate (source animal id): 229 | ≤ 0.25
isolate (source animal id): 233 | ≤ 0.25
isolate (source animal id): 234 | ≤ 0.25
isolate (source animal id): 237 | ≤ 0.25
isolate (source animal id): 241 | ≤ 0.25
isolate (source animal id): 245 | ≤ 0.25
isolate (source animal id): 247 | ≤ 0.25
isolate (source animal id): 250 | ≤ 0.25
isolate (source animal id): 254 | ≤ 0.25
isolate (source animal id): 255 | ≤ 0.25
isolate (source animal id): 258 | ≤ 0.25
isolate (source animal id): 261 | ≤ 0.25
isolate (source animal id): 262 | ≤ 0.25
isolate (source animal id): 269 | ≤ 0.25
isolate (source animal id): 270 | ≤ 0.25
isolate (source animal id): 274 | ≤ 0.25
isolate (source animal id): 275 | ≤ 0.25
isolate (source animal id): 276 | ≤ 0.25
isolate (source animal id): 277 | ≤ 0.25
isolate (source animal id): 278 | ≤ 0.25
isolate (source animal id): 279 | ≤ 0.25
isolate (source animal id): 280 | ≤ 0.25
isolate (source animal id): 284 | ≤ 0.25
isolate (source animal id): 285 | ≤ 0.25
isolate (source animal id): 287 | ≤ 0.25
isolate (source animal id): 290 | ≤ 0.25
isolate (source animal id): 294 | ≤ 0.25
isolate (source animal id): 295 | ≤ 0.25
isolate (source animal id): 296 | ≤ 0.25
isolate (source animal id): 307 | ≤ 0.25
isolate (source animal id): 310 | ≤ 0.25
isolate (source animal id): 311 | ≤ 0.25
isolate (source animal id): 312 | ≤ 0.25
isolate (source animal id): 313 | ≤ 0.25
isolate (source animal id): 315 | ≤ 0.25
isolate (source animal id): 316 | ≤ 0.25
